# Measurements from patent US9655362B2, “Fungicidal composition and method for controlling plant diseases” (ISHIHARA SANGYO KAISHA, LTD., priority 2003, dated 2017).
# Several values for one entry are separate records, joined by “and”; a condition that tells them apart may be missing. Identical values can stand only once.
# Assays:
# Erysiphe graminis = experiment: Test on preventive effect against wheat powdery mildew; format: in vivo; set-up: key: % = treated/untreated average lesion area ×100
# Experimental: Wheat (cultivar: […] After the chemical solution dried, conidia of Erysiphe graminis were dusted and inoculated and maintained in a constant temperature chamber at 20° C. […] The average lesion area in the non-treated plot was determined in the same manner as for the treated plot except that water was applied by a spray gun instead of the chemical solution. Disease rate=(a/b)×100 a: average lesion area in the treated plot b: average lesion area in the non-treated plot Theoretical values were calculated in accordance with the Colby's formula. The fungicidal composition of the present invention has a synergistic effect regarding the test on preventive effect against wheat powdery mildew, when the experimental value is lower than the theoretical value.
# Sphaerotheca cucurbitae = experiment: Test on preventive effect against cucumber powdery mildew; format: in vivo; set-up: scale not given here
# Experimental: Cucumber (cultivar: Suyo) was cultivated in a plastic pot having a diameter of 7.5 cm, and when it reached 1.5-leaf stage, 10 ml of a chemical solution having the compound of the present invention adjusted to a prescribed concentration, was applied by a spray gun. After the chemical solution dried, a suspension of conidia of Sphaerotheca cucurbitae was sprayed and inoculated and maintained in a constant temperature chamber at 20° C. From 6 to 11 days after the inoculation, the area of sporulation was investigated, and the disease rate was determined in the same manner as in Test Example 3, and the results are shown in Tables 54 to 96. The average lesion area in the non-treated plot was determined in the same manner as for the treated plot except that water was applied by a spray gun instead of the chemical solution.
# Further, theoretical values by the Colby's formula are shown in brackets in Tables 54 to 96.
# [1] = other fungicide alone, dose 1.6 g/ha
# [2] = other fungicide alone, concentration 31 ppm
# [3] = other fungicide alone, concentration 63 ppm
# [4] = Compound No. alone, concentration 16 ppm
# [5] = single agent, 4 ppm, area of sporulation 6 to 11 days after inoculation
# [6] = single agent, 8 ppm, area of sporulation 6 to 11 days after inoculation
# [7] = single agent, 1 ppm, area of sporulation 6 to 11 days after inoculation
# [8] = single agent, 2 ppm, area of sporulation 6 to 11 days after inoculation
# [9] = other fungicide alone, dose 12.5 g/ha
# [10] = other fungicide alone, concentration 8 ppm
# [11] = other fungicide alone, concentration 4 ppm
# [12] = other fungicide alone, concentration 16 ppm
# [13] = other fungicide alone, dose 3.1 g/ha
# [14] = other fungicide alone, dose 6.3 g/ha
# [15] = other fungicide alone, concentration 2 ppm
molecule,measurement,setting,value
Fc1ccc([C@]2(Cn3cncn3)O[C@H]2c2ccccc2Cl)cc1 (racemic) [Epoxiconazole],Disease rate,Erysiphe graminis; [1],100
CO/C=C(/C(=O)OC)c1ccccc1Oc1cc(Oc2ccccc2C#N)ncn1 [Azoxystrobin],Disease rate,Sphaerotheca cucurbitae; [2],100 and 80.4
same,Disease rate,Sphaerotheca cucurbitae; [3],100
same,Disease rate,"Sphaerotheca cucurbitae; other fungicide alone, concentration 125 ppm",100
"COc1cc(C)c(C(=O)c2c(F)ncc(C)c2I)c(OC)c1OC [Compound No. 18, 3-(2,3,4-trimethoxy-6-methylbenzoyl)-2-fluoro-4-iodo-5-methylpyridine]",melting point,,140 to 141 °C
"COc1cc(C)c(C(=O)c2c(OC)ncc(Br)c2Cl)c(OC)c1OC [Compound No. 23, 3-(2,3,4-trimethoxy-6-methylbenzoyl)-5-bromo-4-chloro-2-methoxypyridine]",melting point,,84 to 87 °C
same,Disease rate,"Sphaerotheca cucurbitae; Compound No. alone, concentration 2 ppm",100
same,Disease rate,Sphaerotheca cucurbitae; [4],30.7
same,Disease rate,Sphaerotheca cucurbitae; [5],79.2
same,Disease rate,Sphaerotheca cucurbitae; [6],19.8
same,Disease rate,"Sphaerotheca cucurbitae; single agent, 16 ppm, area of sporulation 6 to 11 days after inoculation",2.4
"COc1cc(C)c(C(=O)c2c(OC)ncc(Cl)c2C)c(OC)c1OC [Compound No. 35, 3-(2,3,4-trimethoxy-6-methylbenzoyl)-5-chloro-2-methoxy-4-methylpyridine]",Disease rate,Sphaerotheca cucurbitae; [4],80.4
same,Disease rate,Sphaerotheca cucurbitae; [7],56.8
same,Disease rate,Sphaerotheca cucurbitae; [8],14.2
"COc1cc(C)c(C(=O)c2c(Cl)cnc(Cl)c2C(F)(F)F)c(OC)c1OC [Compound No. 39, 4-(2,3,4-trimethoxy-6-methylbenzoyl)-2,5-dichloro-3-trifluoromethylpyridine]",Disease rate,"Erysiphe graminis; Compound No. alone, dose 1.6 g/ha",58.8
same,melting point,,106 to 109 °C
same,Disease rate,Sphaerotheca cucurbitae; [4],20
same,Disease rate,Sphaerotheca cucurbitae; [5],32.0
same,Disease rate,Sphaerotheca cucurbitae; [6],14.2
"COc1cc(C)c(C(=O)c2c(OC)cnc(Cl)c2C(F)(F)F)c(OC)c1OC [Compound No. 40, 4-(2,3,4-trimethoxy-6-methylbenzoyl)-2-chloro-3-trifluoromethyl-5-methoxypyridine]",melting point,,117 to 119 °C
same,Disease rate,Sphaerotheca cucurbitae; [7],71.0
same,Disease rate,Sphaerotheca cucurbitae; [8],42.6
"COc1cc(C)c(C(=O)c2c(OC)cncc2C(F)(F)F)c(OC)c1OC [Compound No. 122, 4-(2,3,4-trimethoxy-6-methylbenzoyl)-3-methoxy-5-trifluoromethylpyridine]",melting point,,103 to 106 °C
Cc1ccc(-c2c(Cl)nc(C#N)n2S(=O)(=O)N(C)C)cc1 [Cyazofamid],Disease rate,Sphaerotheca cucurbitae; [2],100
same,Disease rate,Sphaerotheca cucurbitae; [3],100
CC(C1CC1)C(O)(Cn1cncn1)c1ccc(Cl)cc1 (centres unmarked) [Cyproconazole],Disease rate,Erysiphe graminis; [9],15.0
CC(Cc1ccc(C(C)(C)C)cc1)CN1C[C@@H](C)O[C@@H](C)C1 (some centres unmarked) [Fenpropimorph],Disease rate,"Erysiphe graminis; other fungicide alone, dose 25 g/ha",100
O=c1c2cc(F)ccc2nc(-n2cncn2)n1-c1ccc(Cl)cc1Cl [Fluquinconazole],Disease rate,"Erysiphe graminis; other fungicide alone, dose 50 g/ha",30.0
same,Disease rate,"Erysiphe graminis; other fungicide alone, dose 200 g/ha",7.5
same,Disease rate,"Erysiphe graminis; other fungicide alone, dose 400 g/ha",2.5
Clc1ccc(CSC(Cn2cncn2)=Nc2ccc(Cl)cc2Cl)cc1 [Imibenconazole],Disease rate,Sphaerotheca cucurbitae; [10],100
CCCCCCCCCCCCc1ccc(S(=O)(=O)O)cc1.CCCCCCCCCCCCc1ccc(S(=O)(=O)O)cc1.CCCCCCCCCCCCc1ccc(S(=O)(=O)O)cc1.NC(N)=NCCCCCCCCNCCCCCCCCN=C(N)N [Iminoctadine albesilate],Disease rate,Sphaerotheca cucurbitae; [11],85.9 and 93.8
same,Disease rate,Sphaerotheca cucurbitae; [10],83.9 and 60.7 and 45.0
same,Disease rate,Sphaerotheca cucurbitae; [12],35.3 and 30.0 and 49.4
CC#Cc1cc(C)nc(Nc2ccccc2)n1 [Mepanipyrim],Disease rate,Sphaerotheca cucurbitae; [10],100
CC1(C)CCC(Cc2ccc(Cl)cc2)C1(O)Cn1cncn1 (centres unmarked) [Metconazole],Disease rate,Erysiphe graminis; [1],44.1
same,Disease rate,Erysiphe graminis; [13],19.6
same,Disease rate,Erysiphe graminis; [14],4.9
COc1cc(C)c(C(=O)c2c(OC)ccc(Br)c2C)c(OC)c1OC [Metrafenone],Disease rate,Erysiphe graminis; [13],100
same,Disease rate,Erysiphe graminis; [14],80.0
same,Disease rate,Erysiphe graminis; [9],60.0
CC1(C)COC(C)(CCCc2ccc(Cl)cc2)N1C(=O)n1ccnc1.CC1(C)COC(C)(CCCc2ccc(Cl)cc2)N1C(=O)n1ccnc1.O=C(O)/C=C/C(=O)O (centres unmarked) [Oxpoconazole fumarate],Disease rate,Sphaerotheca cucurbitae; [10],100 and 80.0
same,Disease rate,Sphaerotheca cucurbitae; [12],100 and 60.0
same,Disease rate,Sphaerotheca cucurbitae; [2],45.5 and 30.0
CC1(C)COC(C)(CCCc2ccc(Cl)cc2)N1C(=O)n1ccnc1 (centres unmarked) [Oxpoconazole],Disease rate,Sphaerotheca cucurbitae; [6],44.5
CCCC1COC(Cn2cncn2)(c2ccc(Cl)cc2Cl)O1 (centres unmarked) [Propiconazole],Disease rate,Erysiphe graminis; [13],100
same,Disease rate,Erysiphe graminis; [9],11.6
CC(C)(C)C(O)(CCc1ccc(Cl)cc1)Cn1cncn1 (centres unmarked) [Tebuconazole],Disease rate,Sphaerotheca cucurbitae; [15],56.8
same,Disease rate,Sphaerotheca cucurbitae; [11],71.0
FC(F)C(F)(F)OCC(Cn1cncn1)c1ccc(Cl)cc1Cl (centres unmarked) [Tetraconazole],Disease rate,Erysiphe graminis; [13],80.0
same,Disease rate,Erysiphe graminis; [14],35.0
same,Disease rate,Sphaerotheca cucurbitae; [15],56.8
same,Disease rate,Sphaerotheca cucurbitae; [11],56.8
CC(C)(C)C(O)C(Oc1ccc(Cl)cc1)n1cncn1 (centres unmarked) [Triadimenol],Disease rate,Erysiphe graminis; [13],65
same,Disease rate,Erysiphe graminis; [9],19.0
Polyoxins,Disease rate,Sphaerotheca cucurbitae; [2],100 and 80.4 and 80.0
